In patent US20230357269A1 (LES LABORATOIRES SERVIER, priority 2020, published 2023):

These compounds were tested against human recombinant LRRK2 protein (Homo sapiens (Human), UniProt Q5S007) (assay: LRRK2 Kinase Activity Assay (ADP-Glo)). Settings: LRRK2 wt; LRRKtide peptide and ATP substrates; 1h-incubation at 37° C.
Chain of human recombinant LRRK2 protein (Q5S007 whole entry): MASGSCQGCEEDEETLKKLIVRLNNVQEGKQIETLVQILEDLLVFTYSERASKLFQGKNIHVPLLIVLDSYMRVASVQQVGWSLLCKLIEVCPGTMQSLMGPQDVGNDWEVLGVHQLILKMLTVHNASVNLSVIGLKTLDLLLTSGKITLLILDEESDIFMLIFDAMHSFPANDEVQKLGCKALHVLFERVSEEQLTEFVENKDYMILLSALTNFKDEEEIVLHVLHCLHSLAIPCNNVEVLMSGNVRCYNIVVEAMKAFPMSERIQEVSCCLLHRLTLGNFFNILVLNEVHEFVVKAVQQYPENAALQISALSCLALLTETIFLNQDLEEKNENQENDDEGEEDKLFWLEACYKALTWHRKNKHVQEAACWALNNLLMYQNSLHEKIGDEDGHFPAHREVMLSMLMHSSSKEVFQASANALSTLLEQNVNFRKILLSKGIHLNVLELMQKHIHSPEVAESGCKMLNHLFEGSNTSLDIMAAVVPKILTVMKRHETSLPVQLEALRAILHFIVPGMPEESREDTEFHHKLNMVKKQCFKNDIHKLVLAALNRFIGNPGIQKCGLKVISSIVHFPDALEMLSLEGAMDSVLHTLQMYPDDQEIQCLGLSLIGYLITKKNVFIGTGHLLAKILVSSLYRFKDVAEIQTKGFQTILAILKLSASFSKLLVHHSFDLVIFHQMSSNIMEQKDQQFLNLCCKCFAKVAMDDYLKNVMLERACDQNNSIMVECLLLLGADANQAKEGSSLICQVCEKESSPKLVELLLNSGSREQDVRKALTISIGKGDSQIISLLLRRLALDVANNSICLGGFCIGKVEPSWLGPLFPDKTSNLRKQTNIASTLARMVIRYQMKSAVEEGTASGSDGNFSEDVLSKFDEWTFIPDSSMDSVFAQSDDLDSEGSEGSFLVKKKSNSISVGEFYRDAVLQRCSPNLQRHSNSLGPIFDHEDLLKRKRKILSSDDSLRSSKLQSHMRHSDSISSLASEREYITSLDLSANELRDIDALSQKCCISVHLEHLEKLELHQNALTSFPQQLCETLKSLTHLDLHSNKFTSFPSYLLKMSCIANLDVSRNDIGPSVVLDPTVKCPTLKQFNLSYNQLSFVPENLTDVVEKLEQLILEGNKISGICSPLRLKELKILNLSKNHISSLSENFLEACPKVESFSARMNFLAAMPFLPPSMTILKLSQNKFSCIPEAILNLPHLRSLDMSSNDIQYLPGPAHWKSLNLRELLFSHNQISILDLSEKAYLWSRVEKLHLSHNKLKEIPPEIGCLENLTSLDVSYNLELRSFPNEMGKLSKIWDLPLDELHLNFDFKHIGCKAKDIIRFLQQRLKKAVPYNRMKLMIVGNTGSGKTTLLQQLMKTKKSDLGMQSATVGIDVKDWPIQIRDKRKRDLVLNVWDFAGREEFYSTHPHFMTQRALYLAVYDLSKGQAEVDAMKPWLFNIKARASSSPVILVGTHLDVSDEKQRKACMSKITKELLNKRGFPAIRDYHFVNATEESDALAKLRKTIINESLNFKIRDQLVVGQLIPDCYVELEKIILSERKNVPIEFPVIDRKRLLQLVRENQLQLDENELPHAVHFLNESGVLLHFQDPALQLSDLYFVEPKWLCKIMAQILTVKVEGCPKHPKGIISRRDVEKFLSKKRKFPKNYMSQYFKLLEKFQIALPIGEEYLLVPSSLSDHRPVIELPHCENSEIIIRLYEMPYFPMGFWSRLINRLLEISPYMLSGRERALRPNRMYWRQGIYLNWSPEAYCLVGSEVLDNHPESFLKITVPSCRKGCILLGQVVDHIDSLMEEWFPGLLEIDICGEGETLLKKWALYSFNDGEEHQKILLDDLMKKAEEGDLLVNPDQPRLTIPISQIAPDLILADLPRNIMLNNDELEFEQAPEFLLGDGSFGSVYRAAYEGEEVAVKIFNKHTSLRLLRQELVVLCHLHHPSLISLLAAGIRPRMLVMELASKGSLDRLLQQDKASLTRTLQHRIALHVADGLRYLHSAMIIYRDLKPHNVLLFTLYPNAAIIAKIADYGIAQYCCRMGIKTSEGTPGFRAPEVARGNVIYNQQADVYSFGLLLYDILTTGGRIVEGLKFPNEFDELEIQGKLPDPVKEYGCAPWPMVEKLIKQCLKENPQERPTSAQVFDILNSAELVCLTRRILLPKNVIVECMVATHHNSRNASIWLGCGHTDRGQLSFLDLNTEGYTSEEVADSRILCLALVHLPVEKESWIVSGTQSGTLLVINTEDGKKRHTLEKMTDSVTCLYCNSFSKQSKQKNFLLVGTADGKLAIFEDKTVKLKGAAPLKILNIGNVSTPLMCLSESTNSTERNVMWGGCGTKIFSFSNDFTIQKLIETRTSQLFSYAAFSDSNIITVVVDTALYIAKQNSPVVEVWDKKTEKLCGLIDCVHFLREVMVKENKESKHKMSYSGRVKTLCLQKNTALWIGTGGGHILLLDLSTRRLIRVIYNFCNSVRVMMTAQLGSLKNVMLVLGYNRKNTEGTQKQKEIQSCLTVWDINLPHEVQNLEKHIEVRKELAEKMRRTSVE
Type: biochemical
Outline: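 Recombinant human LRRK2 acted on LRRKtide peptide and ATP for 1 h at 37 °C. ADP formed was detected by ADP-Glo luminescence (ATP depletion, then ADP-to-ATP conversion and luciferase). IC50s came from curve fits over 10 concentrations (N=2).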
N#CCc1cc2cc(c1)-c1n[nH]c3ccc(cc13)OCCCNC(=O)OC2 [Example 77, 2-{9-oxo-8,14-dioxa-10,19,20-triazatetracyclo[13.5.2.1^2,6.0^18,21]tricosa-1(20),2(23),3,5,15(22),16,18(21)-heptaen-4-yl}acetonitrile] was tested, and the IC50 was less than 10 nM. C#Cc1cc2cc(c1)-c1n[nH]c3ccc(cc13)OCCCNC(=O)OC2 [Example 80, 4-ethynyl-8,14-dioxa-10,19,20-triazatetracyclo[13.5.2.1^2,6.0^18,21]tricosa-1(20),2(23),3,5,15(22),16,18(21)-heptaen-9-one] gave an IC50 of less than 10 nM. Work on O=C1NCCCOc2ccc3[nH]nc(c3c2)-c2cc(cc(N3CCNCC3)c2)CO1 [Example 81, 4-(piperazin-1-yl)-8,14-dioxa-10,19,20-triazatetracyclo[13.5.2.1^2,6.0^18,21]tricosa-1(20),2(23),3,5,15(22),16,18(21)-heptaen-9-one] yielded an IC50 of less than 10 nM. For O=C1NCCCOc2ccc3[nH]nc(c3c2)-c2cc(cc(C3=CCNCC3)c2)CO1 [Example 82, 4-(1,2,3,6-tetrahydropyridin-4-yl)-8,14-dioxa-10,19,20-triazatetracyclo[13.5.2.1^2,6.0^18,21]tricosa-1(20),2(23),3,5,15(22),16,18(21)-heptaen-9-one], the IC50 was less than 10 nM. COCC1CCOc2ccc3[nH]nc(c3c2)-c2cccc(c2)COC(=O)N1 (stereo not drawn) [Example 83, 11-(methoxymethyl)-8,14-dioxa-10,19,20-triazatetracyclo[13.5.2.1^2,6.0^18,21]tricosa-1(20),2(23),3,5,15(22),16,18(21)-heptaen-9-one] was tested, and the IC50 was less than 10 nM. Compound O=C1NCCCOc2ccc3[nH]nc(c3c2)-c2ccn(n2)CCO1 [Example 84, 8,14-dioxa-5,10,19,20,23-pentaazatetracyclo[13.5.2.1^2,5.0^18,21]tricosa-1(20),2(23),3,15(22),16,18(21)-hexaen-9-one] has an IC50 of 10 to 100 nM. For CC1CCOc2ccc3[nH]nc(c3c2)-c2cnn(c2)CCOC(=O)N1 (stereo not drawn) [Example 85, 11-methyl-8,14-dioxa-4,5,10,19,20-pentaazatetracyclo[13.5.2.1^2,5.0^18,21]tricosa-1(20),2(23),3,15(22),16,18(21)-hexaen-9-one], the IC50 was 10 to 100 nM. In the case of CC1CNC(=O)OCc2cccc(c2)-c2n[nH]c3ccc(cc23)OC1 (stereo not drawn) [Example 86, 12-methyl-8,14-dioxa-10,19,20-triazatetracyclo[13.5.2.1^2,6.0^18,21]tricosa-1(20),2(23),3,5,15(22),16,18(21)-heptaen-9-one], the IC50 is reported as less than 10 nM. With CCC1CCOc2ccc3[nH]nc(c3c2)-c2cccc(c2)COC(=O)N1 (stereo not drawn) [Example 87, 11-ethyl-8,14-dioxa-10,19,20-triazatetracyclo[13.5.2.1^2,6.0^18,21]tricosa-1(20),2(23),3,5,15(22),16,18(21)-heptaen-9-one] the IC50 was less than 10 nM. For Cc1c(F)cc2cc1C(C)OC(=O)NCCCOc1ccc3[nH]nc-2c3c1 (stereo not drawn) [Example 88, 4-fluoro-5,7-dimethyl-8,14-dioxa-10,19,20-triazatetracyclo[13.5.2.1^2,6.0^18,21]tricosa-1(20),2(23),3,5,15(22),16,18(21)-heptaen-9-one], the IC50 was 10 to 100 nM. Compound COc1c(F)cc2cc1C(C)OC(=O)NCCCOc1ccc3[nH]nc-2c3c1 (stereo not drawn) [Example 89, 4-fluoro-5-methoxy-7-methyl-8,14-dioxa-10,19,20-triazatetracyclo[13.5.2.1^2,6.0^18,21]tricosa-1(20),2(23),3,5,15(22),16,18(21)-heptaen-9-one] has an IC50 of 100 to 1000 nM. Compound Cc1cc2cc(c1F)C(C)OC(=O)NCCCOc1ccc3[nH]nc-2c3c1 (stereo not drawn) [Example 90, 5-fluoro-4,7-dimethyl-8,14-dioxa-10,19,20-triazatetracyclo[13.5.2.1^2,6.0^18,21]tricosa-1(20),2(23),3,5,15(22),16,18(21)-heptaen-9-one] has an IC50 of less than 10 nM. O=C1OC2CN1CCCOc1ccc3[nH]nc(c3c1)-c1cccc2c1 (stereo not drawn) [Example 91, 8,14-dioxa-10,19,20-triazapentacyclo[13.5.2.1^2,6.1^7,10.0^18,21]tetracosa-1(20),2(24),3,5,15(22),16,18(21)-heptaen-9-one] was tested, and the IC50 was less than 10 nM. CC1CCNC(=O)OCc2cccc(n2)-c2n[nH]c3ccc(cc23)O1 (stereo not drawn) [Example 92, 13-methyl-8,14-dioxa-10,19,20,23-tetraazatetracyclo[13.5.2.1^2,6.0^18,21]tricosa-1(20),2(23),3,5,15(22),16,18(21)-heptaen-9-one] was tested, and the IC50 was less than 10 nM. In the case of CC1CNC(=O)OCCn2cc(cn2)-c2n[nH]c3ccc(cc23)OC1 (stereo not drawn) [Example 93, 12-methyl-8,14-dioxa-4,5,10,19,20-pentaazatetracyclo[13.5.2.1^2,5.0^18,21]tricosa-1(20),2(23),3,15(22),16,18(21)-hexaen-9-one], the IC50 is reported as less than 10 nM. Work on CC1Cn2cc(cn2)-c2n[nH]c3ccc(cc23)OCCCNC(=O)O1 (stereo not drawn) [Example 94, 7-methyl-8,14-dioxa-4,5,10,19,20-pentaazatetracyclo[13.5.2.1^2,5.0^18,21]tricosa-1(20),2(23),3,15(22),16,18(21)-hexaen-9-one] yielded an IC50 of less than 10 nM. COc1cc2cc(c1F)C(C)OC(=O)NCCCOc1ccc3[nH]nc-2c3c1 (stereo not drawn) [Example 95, 5-fluoro-4-methoxy-7-methyl-8,14-dioxa-10,19,20-triazatetracyclo[13.5.2.1^2,6.0^18,21]tricosa-1(20),2(23),3,5,15(22),16,18(21)-heptaen-9-one] was tested, and the IC50 was less than 10 nM. C[C@@H]1CCNC(=O)O[C@H](C)c2cccc(c2)-c2n[nH]c3ccc(cc23)O1 [Example 96, (7R,13R)-7,13-dimethyl-8,14-dioxa-10,19,20-triazatetracyclo[13.5.2.1^2,6.0^18,21]tricosa-1(20),2(23),3,5,15(22),16,18(21)-heptaen-9-one] was tested, and the IC50 was less than 10 nM. In the case of C[C@@H]1CCNC(=O)OCCn2cc(cn2)-c2n[nH]c3ccc(cc23)O1 [Example 97, (13R)-13-methyl-8,14-dioxa-4,5,10,19,20-pentaazatetracyclo[13.5.2.1^2,5.0^18,21]tricosa-1(20),2(23),3,15,17,21-hexaen-9-one], the IC50 is reported as less than 10 nM. Compound O=C1OCc2cncc(c2)-c2n[nH]c3ccc(cc23)OCC2CCN1C2 (stereo not drawn) [Example 98, 8,15-dioxa-4,10,20,21-tetraazapentacyclo[14.5.2.1^2,6.1^10,13.0^19,22]pentacosa-1(21),2(25),3,5,16(23),17,19(22)-heptaen-9-one] has an IC50 of less than 10 nM. With O=C1NCCCOc2ccc3[nH]nc(c3c2)-c2ccn(c2)CCO1 [Example 99, 8,14-dioxa-5,10,19,20-tetraazatetracyclo[13.5.2.1^2,5.0^18,21]tricosa-1(20),2(23),3,15(22),16,18(21)-hexaen-9-one] the IC50 was less than 10 nM. Compound C[C@@H]1CCNC(=O)OCc2cncc(c2)-c2n[nH]c3ccc(cc23)O1 [Example 102, (13R)-13-methyl-8,14-dioxa-4,10,19,20-tetraazatetracyclo[13.5.2.1^2,6.0^18,21]tricosa-1(20),2(23),3,5,15(22),16,18(21)-heptaen-9-one] has an IC50 of less than 10 nM. Work on O=C1NCCCOc2ccc3[nH]nc(c3c2)-c2cnn(c2)C(C2CC2)CO1 (stereo not drawn) [Example 103, 6-cyclopropyl-8,14-dioxa-4,5,10,19,20-pentaazatetracyclo[13.5.2.1^2,5.0^18,21]tricosa-1(20),2(23),3,15(22),16,18(21)-hexaen-9-one] yielded an IC50 of less than 10 nM. For CCC1OC(=O)NCCCOc2ccc3[nH]nc(c3c2)-c2cccc1c2 (stereo not drawn) [Example 104, 7-ethyl-8,14-dioxa-10,19,20-triazatetracyclo[13.5.2.1^2,6.0^18,21]tricosa-1(20),2,4,6(23),15,17,21-heptaen-9-one], the IC50 was 10 to 100 nM.
